Literature values, collected in patent publication US20140100274A1, “METHODS OF ADMINISTERING COMPOSITIONS COMPRISING DOCOSAPENTAENOIC ACID” (Matinas BioPharma, Inc., priority 2012, published 2014).

Settings: in vivo

- First-pass metabolism: occurs in all statins except pravastatin
Structure (SMILES): CC[C@H](C)C(=O)O[C@H]1C[C@H](O)C=C2C=C[C@H](C)[C@H](CC[C@@H](O)C[C@@H](O)CC(=O)O)[C@H]21 [pravastatin]
